From ChEMBL document CHEMBL1145498, “A systematic interaction map of validated kinase inhibitors with Ser/Thr kinases” (Proc Natl Acad Sci U S A, 2007)

Columns and labels:
[1] = target: T1, Serine/threonine-protein kinase VRK1 (Homo sapiens) (UniProt Q99986)
T1 sequence (whole entry): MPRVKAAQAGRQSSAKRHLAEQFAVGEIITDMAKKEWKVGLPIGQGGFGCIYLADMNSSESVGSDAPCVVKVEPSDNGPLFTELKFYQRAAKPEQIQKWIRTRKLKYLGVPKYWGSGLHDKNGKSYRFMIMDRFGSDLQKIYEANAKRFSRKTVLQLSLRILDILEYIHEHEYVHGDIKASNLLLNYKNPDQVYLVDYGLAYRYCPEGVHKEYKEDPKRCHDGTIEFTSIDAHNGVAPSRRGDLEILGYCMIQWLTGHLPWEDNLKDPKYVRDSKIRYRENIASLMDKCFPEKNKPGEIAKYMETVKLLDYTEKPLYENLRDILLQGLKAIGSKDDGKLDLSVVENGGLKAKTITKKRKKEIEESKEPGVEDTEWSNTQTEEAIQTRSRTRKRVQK

[2] = target: T2, Serine/threonine-protein kinase 4 (Homo sapiens) (UniProt Q13043)
T2 sequence (whole entry): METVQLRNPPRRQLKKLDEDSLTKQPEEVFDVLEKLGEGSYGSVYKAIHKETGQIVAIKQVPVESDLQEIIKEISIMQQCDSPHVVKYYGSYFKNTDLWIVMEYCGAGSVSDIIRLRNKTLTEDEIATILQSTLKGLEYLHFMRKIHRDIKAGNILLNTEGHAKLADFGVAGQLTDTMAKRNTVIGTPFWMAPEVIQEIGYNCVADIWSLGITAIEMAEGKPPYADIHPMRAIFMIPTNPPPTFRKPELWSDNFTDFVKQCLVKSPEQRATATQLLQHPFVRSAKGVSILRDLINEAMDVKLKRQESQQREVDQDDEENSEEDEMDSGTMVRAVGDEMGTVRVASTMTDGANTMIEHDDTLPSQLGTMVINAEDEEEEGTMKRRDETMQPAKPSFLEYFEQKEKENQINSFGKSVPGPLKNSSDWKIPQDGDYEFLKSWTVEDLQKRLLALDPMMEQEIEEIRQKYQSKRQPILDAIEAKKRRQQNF

[3] = target: Calcium/calmodulin-dependent protein kinase type 1D (Homo sapiens) (UniProt Q8IU85)
Calcium/calmodulin-dependent protein kinase type 1D (Homo sapiens), sequence (Q8IU85 whole entry, looked up): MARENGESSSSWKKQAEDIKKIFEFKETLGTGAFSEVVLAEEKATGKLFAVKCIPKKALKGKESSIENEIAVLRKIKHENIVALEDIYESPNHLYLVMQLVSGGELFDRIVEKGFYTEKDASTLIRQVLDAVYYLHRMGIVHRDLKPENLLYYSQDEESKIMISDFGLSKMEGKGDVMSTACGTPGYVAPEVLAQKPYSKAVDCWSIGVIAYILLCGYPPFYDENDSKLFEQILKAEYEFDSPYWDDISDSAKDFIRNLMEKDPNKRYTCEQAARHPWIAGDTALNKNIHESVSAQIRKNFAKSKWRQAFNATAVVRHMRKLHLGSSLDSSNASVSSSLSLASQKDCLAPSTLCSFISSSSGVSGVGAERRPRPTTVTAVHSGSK

[4] = target: T3, Myotonin-protein kinase (Homo sapiens) (UniProt Q09013)
T3 sequence (whole entry): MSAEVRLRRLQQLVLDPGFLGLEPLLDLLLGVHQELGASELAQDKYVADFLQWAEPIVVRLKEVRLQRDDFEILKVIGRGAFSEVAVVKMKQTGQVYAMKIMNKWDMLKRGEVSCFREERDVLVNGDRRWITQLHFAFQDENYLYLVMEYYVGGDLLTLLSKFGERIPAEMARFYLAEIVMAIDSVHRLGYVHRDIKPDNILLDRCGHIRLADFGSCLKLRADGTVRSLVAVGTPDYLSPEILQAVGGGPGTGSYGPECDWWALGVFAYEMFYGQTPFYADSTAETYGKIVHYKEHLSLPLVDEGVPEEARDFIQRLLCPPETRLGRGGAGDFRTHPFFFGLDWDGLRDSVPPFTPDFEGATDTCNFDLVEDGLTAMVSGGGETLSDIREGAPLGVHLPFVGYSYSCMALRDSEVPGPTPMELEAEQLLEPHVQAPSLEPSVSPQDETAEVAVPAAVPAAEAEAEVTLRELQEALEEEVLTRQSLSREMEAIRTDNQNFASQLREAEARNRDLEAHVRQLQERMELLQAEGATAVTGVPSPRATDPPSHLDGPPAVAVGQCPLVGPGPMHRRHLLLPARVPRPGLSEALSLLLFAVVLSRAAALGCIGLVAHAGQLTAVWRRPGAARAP

Row | Structure (SMILES) | ΔTm [1] [°C] | ΔTm [2] [°C] | ΔTm [3] [°C] | ΔTm [4] [°C]
1 | Cn1cnc2c(NCc3ccccc3)nc(NCCO)nc21 [OLOMOUCINE] | 0.4 | 0.3 | -0.1 | -0.1
2 | Cc1cc(C=C2C(=O)C=CC2=O)cc(C)c1O | -3.1 | 0.8 | -1 | 0.3
3 | CSc1nc(-c2ccc(F)cc2)c(-c2ccnc(NC(C)c3ccccc3)c2)[nH]1 (racemic) | 0.9 | 1.3 | 0.5 | 1.3
4 | COc1ccc(S(=O)(=O)N(CCO)c2ccccc2CN(C)C/C=C/c2ccc(Cl)cc2)cc1 | 0 | -0.2 | -0.3 | -0.7
5 | CC(C)n1cnc2/c(=N/c3cccc(Cl)c3)nc(NCCO)[nH]c21 | 0.5 | 3.4 | 0.7 | 0.1
6 | Oc1cc(O)cc(/C=C/c2ccc(O)c(O)c2)c1 [PICEATANNOL] | 0.2 | 0.3 | 1.1 | -0.5
7 | Cc1c2ccncc2c(C)c2c1[nH]c1ccccc12 [ELLIPTECINE] | 0.4 | 4 | 1.2 | 3.5
8 | CC(C)(C)n1nc(-c2ccc(Cl)cc2)c2c(N)ncnc21 | 0 | 2.1 | -0.2 | 0.6
9 | CCCCc1c(-c2ccc(O)cc2)[nH]c2nccnc12 [ALOISINE A] | -0.2 | -0.2 | 1.2 | 6.1
10 | O=C1Nc2ccccc2/C1=C/c1cnc[nH]1 | 0.5 | 8.4 | 0.7 | 0.8
11 | COc1nccc(-c2c(-c3ccc(F)cc3)ncn2[C@H]2CC[C@H](O)CC2)n1 | 1.2 | 6.1 | -0.1 | 
12 | C[C@@H]1C[C@H]2O[C@@H]2/C=C\C=C\C(=O)Cc2c(Cl)c(O)cc(O)c2C(=O)O1 [RADICICOL] | -0.2 | 0.3 | 0 | -0.9
13 | COc1cc2ncnc(Nc3ccc(NC(=O)c4ccccc4)cc3)c2cc1OC [ANILINOQUINAZOLINE1] | 0.5 | 0.6 | 0.7 | 1.1
14 | Nc1cccc(-c2cc3c(Oc4cccc(O)c4)ncnc3[nH]2)c1 | 0.8 | 5.1 | 0.3 | 2.5
15 | CC(C)[C@H](CO)Nc1nc(Nc2cc(N)cc(Cl)c2)c2ncn(C(C)C)c2n1 [AMINOPURVALANOL] |  |  | 0.7 | 2
16 | O=c1c2ccccc2[nH]c(=S)n1CCN1CCC(=C(c2ccc(F)cc2)c2ccc(F)cc2)CC1 [DIACYLGLYCEROL KINASE INHIBITOR II] | -0.2 | 2 | 0.8 | -0.7
17 | CCOc1cc2ncnc(Nc3cccc(Br)c3)c2cc1OCC | 0 | 2.2 | 0.7 | 0.5
18 | O=C1NC(=O)C(c2cn(CCCn3ccnc3)c3ccccc23)=C1Nc1ccccc1 | 0.6 | 0.8 | 0.2 | 4.5
19 | C[S+]([O-])c1ccc(CSc2nc(-c3ccc(F)cc3)c(-c3ccncc3)[nH]2)cc1 (stereo unspecified) | -0.1 | 0.1 | 0 | 0.5
20 | Cc1nc2sccn2c(=O)c1CCN1CCC(=C(c2ccccc2)c2ccc(F)cc2)CC1 | 0.3 | 3.6 | 0.5 | 0.1
21 | O=C(O)c1cc(N(Cc2ccccc2O)Cc2cc(O)ccc2O)ccc1O [LAVENDUSTIN A] | 0.3 | 0.5 | 0.1 | 0.9
22 | C[S+]([O-])c1ccc(-c2nc(-c3ccc(F)cc3)c(-c3ccncc3)[nH]2)cc1 (stereo unspecified) [SB-203580] | -0.1 | 1 | -0.2 | 0.1

Row | Structure (SMILES) | ΔTm [1] [°C] | ΔTm [2] [°C] | ΔTm [3] [°C] | ΔTm [4] [°C]
23 | C=CNC#N | 1 | 1.9 | 0.7 | 1.3
24 | CN(C)c1ncnc2nc[nH]c12 [DIMETHYLADENINE] | 0 | 1.1 | 0 | 0.8
25 | Cc1ccc(NC2=CC(=O)c3sc(C)nc3C2=O)cc1 |  | -1.3 | -1.6 | -2.4
26 | CN(c1cccnc1)c1cc2c(Nc3ccc(F)c(Cl)c3)c(C#N)cnc2cn1 |  | 0.4 | 1.9 | 5.3
27 | COc1cc(C[C@H]2C(=O)OC[C@@H]2Cc2ccc(OC)c(OC)c2)ccc1O [ARCTIGENIN] | 0.7 | 0.8 | 0.1 | 1.4
28 | O=C1c2ccccc2-[n+]2ccc3c([nH]c4ccccc43)c21 [FASCAPLYSIN CHLORIDE] | -1.2 | -1.6 | -4.3 | -0.9
29 | CCCNC(=O)Nc1ccc(Oc2ncnc3cc(OC)c(OC)cc23)cc1Cl [KRN-633] | 0.3 | 0.5 | 0.5 | 0.6
30 | O=c1cc(N2CCOCC2)oc2c1ccc1ccccc12 | 0 | 0.2 | 0 | 0.2
31 | COc1cc(/C=C/C(=O)CC(=O)/C=C/c2ccc(O)c(OC)c2)ccc1O [CURCUMIN] | 1 | 5.5 | 2 | 1.5
32 | CCN(CC)CCNC(=O)c1c(C)[nH]c(/C=C2\C(=O)Nc3ccc(Cl)cc32)c1C [SU-11652] | 0.6 | 10.2 | 2.6 | 2.9
33 | COc1cccc(-c2cc(=O)c3ccccc3o2)c1N | 0.2 | -0.1 | -0.1 | -0.2
34 | COc1cc(O)c2c(c1)oc(=O)c1c3cc(O)c(O)cc3oc21 [WEDELOLACTONE] | 0 | 2.4 | 1.1 | 2.7
35 | CC(C)(C)n1nc(-c2cccc3ccccc23)c2c(N)ncnc21 | 0.7 | 3.2 | -0.3 | 2.5
36 | O=C(Nc1cccc(Nc2nccc(Nc3cccc(C(F)(F)F)c3)n2)c1)C1CC1 [ANILINOPYRIMIDINE1] |  | 0.9 | 2.8 | 9.3
37 | O=C(Nc1cccc(Nc2cc(Nc3cccc(C(F)(F)F)c3)ncn2)c1)C1CC1 |  | 1.4 | 2.6 | 4
38 | N=C(N)NCCNS(=O)(=O)c1cccc2cnccc12 | 0.3 | 0.4 | 0 | 0.2
39 | O=C1NC(=O)c2c1c1c3ccccc3n3c1c1c2c2ccccc2n1C1CCC3O1 | -0.1 | 4.7 | 1.6 | 6.8
40 | Cc1ccc(NC(=O)c2cccc(N(C)C)c2)cc1NC(=O)c1ccc(O)cc1 | -0.3 | 0 | 0.3 | -0.8
41 | COc1ccc(Cl)cc1NC(=O)Nc1cc(C)nc2ccccc12 |  |  | 2.2 | 0.1
42 | CCN1/C(=C/C(C)=O)Sc2ccc(OC)cc21 | 0.3 | 0.1 | 0 | 2.5
43 | Brc1c(Br)c(Br)c2[nH]nnc2c1Br [TETRABROMOBENZOTRIAZOLE] | -1.5 | 3.3 | -1.6 | 1.1
44 | CN(C)C[C@@H]1CCn2cc(c3ccccc32)C2=C(C(=O)NC2=O)c2cn(c3ccccc23)CCO1 [RUBOXISTAURIN] | 0.8 | 0.6 |  | 5.3
